Laboratory results reported in patent publication US8481459B2, “Chemical inhibitors of ethylene biosynthesis” (Academia Sinica, priority 2010, dated 2013).

Test system: gene expression in etiolated eto1-4 seedlings
Test: Transcriptional profiling (ATH1 GeneChip microarray) of etiolated eto1-4 seedlings
Type: in vivo, Arabidopsis thaliana
Description: For chemical treatments, seeds were sown on 0.5×MS agar medium supplemented with 10 μM chemicals (AVG, compounds 9393, 9370, and 7303) or DMSO (as control). Arabidopsis seeds were stratified in the dark at 4° C. for 4 days, then germinated in the dark for 3 days at 22° C. Approximately 2,000 etiolated seedlings of the wild type or eto1-4 were used to collect tissues for preparation of total RNA in each microarray experiment with Arabidopsis ATH1 GeneChip (Affymetrix). Extraction of RNA followed an established protocol (Chang, et al. (1993) Plant Mol. Biol. Rep. 11, 113-117). Total RNA (10 μg) was used to prepare biotinylated cRNA for hybridization to ATH1 GeneChip in the experiments disclosed herein. Experiments were repeated by 2 independent biological duplicates, and candidate genes present in both experiments were selected for further analysis. The MASS method was used for data analysis and normalization by all sample medium. Candidate genes were selected by the following criteria. First, genes with 1.5-fold differential expression between the wild type and eto1-4 were selected as the master gene pool, which was then used for comparison in treatments with AVG and individual exemplary compounds. Data were presented in hierarchical clustering and Venn diagram format. Agilent GeneSpring GX and Bioconductor software were used to analyze the expression profile data. Gene Ontology descriptions were generated by GeneSpring GX and further referred to the TAR GO database. Raw data are available in the GEO database (http://www.ncbi.nlm.nih.gov/geo) with Accession no. GSE20897.
The filtered and normalized expression data set from 22810 probes on the ATH1 Genechip was used for hierarchical clustering of gene expression profiles for comparison between AVG and the exemplary invention compounds in eto1-4. It was identified that 1,446 genes show at least 1.5-fold difference in expression between the WT and eto1-4 and used them as the master gene pool for clustering analysis (FIG. 7A). […] These genes likely contribute to the etiolated phenotype of eto1-4 by responding to elevated endogenous ethylene. To determine whether the exemplary compounds have specific r overlapping functions with AVG to suppress the eto1-4 phenotype, genes that are regulated by individual exemplary invention compounds and AVG for Venn diagram analysis were clustered (FIG. 7B). More than 63% of genes (356/561 for compound 9393; 389/561 for compound 9370; 399/561 for compound 7303; FIG. 7B) with expression associated with AVG were co-regulated by the exemplary invention compounds, which indicates an overlap function in suppression of the ethylene phenotype in eto1-4. […] Next genes co-regulated by all of the exemplary invention compounds and AVG were examined by performing a clustering analysis using the co-regulated genes identified in FIG. 7B: 356 (compound 9393 vs AVG), 389 (compound 9370 vs AVG) and 399 genes (compound 7303 vs AVG). It was uncovered that 276 genes were co-regulated by all of the exemplary invention compounds and AVG (FIG. 7C and Table 2). On the basis of GO descriptions generated by Gene Spring GX and TAIR database, the 276 genes were divided into subgroups related to their biological functions (Table 2). […] In addition, stress- and pathogenesis-related genes were among the co-regulated genes, possibly because ethylene is involved in both biotic and abiotic stresses.
Genes (1446 non-redundant loci) were selected by 1.5-fold differential expression between eto1-4 and WT as the master pool for analysis. These genes were used for comparison between chemical treatments by AVG and the exemplary invention compounds. The finalized 276 genes that are co-regulated by AVG and all of the exemplary invention compounds are shown. Locus ID also present in Nemhauser et al. (Nemhauser, et al. (2006) Cell 126, 467-475).

[1] = of 1446 genes differentially expressed between WT and eto1-4, 10 μM
[2] = ratio eto1-4 treated to eto1-4 (no treatment)

Cc1ccc(C2CC(=O)c3cnc(NC4CCCC4)nc3C2)cc1 (centres unmarked) [Compound 9370]
number of genes co-regulated with AVG (of 561 genes associated with AVG, 10 μM): 389 genes
number of genes regulated (expression reverted close to WT) [1]: 728 genes
percentage of genes regulated (expression reverted close to WT) [1]: 50.3%
number of genes regulated specifically, not related to AVG treatment (of all genes regulated by the compound (629, 728, 650), 10 μM): 339 genes
Signal Fold Change AT1G03457, unknown biological function [2]: 2.50
Signal Fold Change AT1G03660, unknown biological function [2]: 2.61
Signal Fold Change AT1G05010 ACC oxidase [2]: 0.28
Signal Fold Change AT1G05760 jacalin lectin protein [2]: 3.58
Signal Fold Change AT1G06720 expressed protein [2]: 1.28
Signal Fold Change AT1G07280, unknown biological function [2]: 0.51
Signal Fold Change AT1G07560 leucine-rich repeat protein kinase [2]: 2.24
Signal Fold Change AT1G08650 phosphoenolpyruvate carboxylase kinase [2]: 2.03
Signal Fold Change AT1G08990 glycogenin glucosyltransferase [2]: 2.25
Signal Fold Change AT1G09530 phytochrome interacting factor 3 [2]: 0.28
Signal Fold Change AT1G10760 starch excess protein (SEX1) [2]: 0.33
Signal Fold Change AT1G13430, response to cytokinin stimulus, sulfotransferase protein [2]: 0.28
Signal Fold Change AT1G14540 anionic peroxidase [2]: 0.53
Signal Fold Change AT1G15380 lactoylglutathione lyase [2]: 2.66
Signal Fold Change AT1G17970, unknown biological function [2]: 2.50
Signal Fold Change AT1G18880 proton-dependent oligopeptide transport (POT) protein [2]: 1.93
Signal Fold Change AT1G20190, cell wall organization and biogenesis, expansin (EXP11) [2]: 0.31
Signal Fold Change AT1G22740 Ras-related protein (RAB7) [2]: 2.62
Signal Fold Change AT1G23060, unknown biological function [2]: 0.36
Signal Fold Change AT1G26930, unknown biological function [2]: 0.47
Signal Fold Change AT1G27380 p21-rho-binding domain-containing protein [2]: 1.96
Signal Fold Change AT1G29520, unknown biological function [2]: 1.93
Signal Fold Change AT1G30750, unknown biological function [2]: 2.58
Signal Fold Change AT1G31710 copper amine oxidase [2]: 4.67
Signal Fold Change AT1G32410 vacuolar protein sorting 55 protein [2]: 2.06
Signal Fold Change AT1G32560 late embryogenesis abundant group 1 domain-containing protein [2]: 1.59
Signal Fold Change AT1G33470, unknown biological function [2]: 2.21
Signal Fold Change AT1G33790, unknown biological function [2]: 0.18
Signal Fold Change AT1G34040, unknown biological function [2]: 2.08
Signal Fold Change AT1G35350, unknown biological function [2]: 4.97
Signal Fold Change AT1G35612, unknown biological function [2]: 3.56
Signal Fold Change AT1G42470, unknown biological function [2]: 4.28
Signal Fold Change AT1G44800, unknown biological function [2]: 1.93
Signal Fold Change AT1G44830 AP2-containing transcription factor [2]: 0.34
Signal Fold Change AT1G48480 leucine-rich repeat trans-membrane protein kinase [2]: 2.68
Signal Fold Change AT1G49660 expressed protein [2]: 0.34
Signal Fold Change AT1G50560 cytochrome P450 [2]: 2.32
Signal Fold Change AT1G52830 auxin-responsive protein [2]: 5.14
Signal Fold Change AT1G56010 transcription activator NAC1 [2]: 2.65
Signal Fold Change AT1G56020, unknown biological function [2]: 0.50
Signal Fold Change AT1G58070, unknown biological function [2]: 2.32
Signal Fold Change AT1G59590, unknown biological function [2]: 3.53
Signal Fold Change AT1G59740 proton-dependent oligopeptide transport (POT) protein [2]: 0.39
Signal Fold Change AT1G62290 aspartyl protease protein [2]: 0.27
Signal Fold Change AT1G62510 lipid transfer protein [2]: 2.17
Signal Fold Change AT1G62620, unknown biological function [2]: 2.47
Signal Fold Change AT1G64200 V-ATPase E subunit [2]: 2.41
Signal Fold Change AT1G65510, unknown biological function [2]: 2.74
Signal Fold Change AT1G65920, unknown biological function [2]: 0.31
Signal Fold Change AT1G66230 myb transcription factor (MYB20) [2]: 2.70
Signal Fold Change AT1G67030 zinc finger (C2H2 type) protein [2]: 7.63
Signal Fold Change AT1G68230, unknown biological function [2]: 2.55
Signal Fold Change AT1G68520 zinc finger (B-box type) protein [2]: 2.74
Signal Fold Change AT1G69570 Dof-type zinc finger-containing protein [2]: 3.22
Signal Fold Change AT1G70210 cyclin delta-1 [2]: 3.28
Signal Fold Change AT1G70850 Bet v I allergen protein [2]: 9.49
Signal Fold Change AT1G70890 major latex protein [2]: 5.19
Signal Fold Change AT1G71030 myb transcription factor (MYB2) [2]: 5.41
Signal Fold Change AT1G71740, unknown biological function [2]: 2.84
Signal Fold Change AT1G72230 plastocyanin like protein [2]: 3.09
Signal Fold Change AT1G73220 sugar transporter protein [2]: 3.97
Signal Fold Change AT1G73300 serine carboxypeptidase S10 protein [2]: 2.36
Signal Fold Change AT1G73310 serine carboxypeptidase S10 protein [2]: 2.66
Signal Fold Change AT1G73330 protease inhibitor [2]: 4.31
Signal Fold Change AT1G73590 auxin efflux carrier protein [2]: 2.08
Signal Fold Change AT1G73640, small GTPase mediated signal transduction, Ras-related GTP-binding protein [2]: 2.10
Signal Fold Change AT1G73830 bHLH protein [2]: 0.37
Signal Fold Change AT1G75500, unknown biological function [2]: 3.37
Signal Fold Change AT1G76220, unknown biological function [2]: 3.55
Signal Fold Change AT1G76500, photomorphogenesis, DNA-binding protein [2]: 0.42
Signal Fold Change AT1G76540 cell division control protein [2]: 2.53
Signal Fold Change AT1G76790, unknown biological function [2]: 3.90
Signal Fold Change AT1G78240 dehydration-responsive protein [2]: 0.47
Signal Fold Change AT1G80380 phosphoribulokinase [2]: 2.14
Signal Fold Change AT2G01910, microtubule nucleation, microtubule associated protein (MAP65/ASE1) protein [2]: 2.62
Signal Fold Change AT2G02820 myb transcription factor (MYB88) [2]: 4.00
Signal Fold Change AT2G02850 plantacyanin [2]: 0.23
Signal Fold Change AT2G16580 auxin-responsive protein [2]: 2.83
Signal Fold Change AT2G16990, unknown biological function [2]: 2.79
Signal Fold Change AT2G19590 ACC oxidase [2]: 0.28
Signal Fold Change AT2G19970, unknown biological function [2]: 3.06
Signal Fold Change AT2G20080, unknown biological function [2]: 3.75
Signal Fold Change AT2G20670, unknown biological function [2]: 2.45
Signal Fold Change AT2G21820, unknown biological function [2]: 0.85
Signal Fold Change AT2G21880 Ras-related GTP-binding protein [2]: 3.99
Signal Fold Change AT2G22860 phytosulfokines 2 (PSK2) [2]: 2.67
Signal Fold Change AT2G24150 expressed protein (response to hormone stimulus) [2]: 2.23
Signal Fold Change AT2G25900 zinc finger (CCCH-type) protein [2]: 1.48
Signal Fold Change AT2G26070 expressed protein (response to ethylene stimulus) [2]: 0.28
Signal Fold Change AT2G26440 pectinesterase protein [2]: 0.38
Signal Fold Change AT2G26740 epoxide hydrolase [2]: 0.23
Signal Fold Change AT2G27140 heat shock protein [2]: 2.43
Signal Fold Change AT2G27370, unknown biological function [2]: 2.26
Signal Fold Change AT2G28305, unknown biological function [2]: 3.16
Signal Fold Change AT2G28410, unknown biological function [2]: 2.92
Signal Fold Change AT2G29340 short-chain dehydrogenase [2]: 0.30
Signal Fold Change AT2G29440, toxin catabolic process, glutathione S-transferase [2]: 0.20
Signal Fold Change AT2G30360 CBL-interacting protein kinase 11 (CIPK11) [2]: 2.02
Signal Fold Change AT2G33380 calcium-binding RD20 protein [2]: 0.21
Signal Fold Change AT2G33990, unknown biological function [2]: 2.72
Signal Fold Change AT2G34300, unknown biological function [2]: 0.33
Signal Fold Change AT2G34500 cytochrome P450 [2]: 4.05
Signal Fold Change AT2G34510, unknown biological function [2]: 2.70
Signal Fold Change AT2G34700, unknown biological function [2]: 1.03
Signal Fold Change AT2G35300 late embryogenesis abundant group 1 domain-containing protein [2]: 1.92
Signal Fold Change AT2G35710 glycogenin glucosyltransferase [2]: 2.23
Signal Fold Change AT2G36350 protein kinase [2]: 0.55
Signal Fold Change AT2G36410, unknown biological function [2]: 2.60
Signal Fold Change AT2G37130 peroxidase 21 [2]: 2.23
Signal Fold Change AT2G38760, unknown biological function [2]: 4.10
Signal Fold Change AT2G38790, unknown biological function [2]: 1.99
Signal Fold Change AT2G39010 aquaporin [2]: 2.05
Signal Fold Change AT2G39310, unknown biological function [2]: 2.73
Signal Fold Change AT2G39980, unknown biological function [2]: 0.14
Signal Fold Change AT2G40420 amino acid transporter [2]: 2.03
Signal Fold Change AT2G41090, unknown biological function [2]: 0.19
Signal Fold Change AT2G41230, unknown biological function [2]: 0.07
Signal Fold Change AT2G42320, unknown biological function [2]: 0.53
Signal Fold Change AT2G43050 pectinesterase protein [2]: 2.35
Signal Fold Change AT2G43535 trypsin inhibitor [2]: 6.13
Signal Fold Change AT2G44110 seven transmembrane MLO protein [2]: 0.39
Signal Fold Change AT2G44130 kelch repeat containing F-box protein [2]: 3.39
Signal Fold Change AT2G47510 fumarate hydratase [2]: 0.43
Signal Fold Change AT2G47550 pectinesterase protein [2]: 0.39
Signal Fold Change AT2G48030, unknown biological function [2]: 2.61
Signal Fold Change AT3G04010 glycosyl hydrolase [2]: 1.98
Signal Fold Change AT3G05990, signal transduction, phosphodiesterase leucine-rich repeat protein [2]: 2.15
Signal Fold Change AT3G09020, unknown biological function [2]: 3.28
Signal Fold Change AT3G09780 protein kinase [2]: 0.50
Signal Fold Change AT3G10080, unknown biological function [2]: 2.52
Signal Fold Change AT3G10340 phenylalanine ammonia-lyase [2]: 1.94
Signal Fold Change AT3G11550, unknown biological function [2]: 2.39
Signal Fold Change AT3G12030, DNA repair, expressed protein [2]: 2.17
Signal Fold Change AT3G12500 basic endocexemplary inase [2]: 1.91
Signal Fold Change AT3G13980, unknown biological function [2]: 6.74
Signal Fold Change AT3G14370 protein kinase [2]: 0.30
